Key:
Experiment in all cases: relative viability (nuclei count vs DMSO), 5 days (fraction); higher = more cells survive
Adavosertib + Tozasertib = compound: C=CCn1c(=O)c2cnc(Nc3ccc(N4CCN(C)CC4)cc3)nc2n1-c1cccc(C(C)(C)O)n1 [Adavosertib] + Cc1cc(Nc2cc(N3CCN(C)CC3)nc(Sc3ccc(NC(=O)C4CC4)cc3)n2)n[nH]1 [Tozasertib] (partner 0.1 µM)
Outline: (§1)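 Values are medians from duplicate plates. Each reflects relative viability, defined as the nuclei count of treated wells over that of vehicle wells. Lung cancer cell lines in 1536-well plates were pin-tool dosed one day after seeding with one drug alone or with a fixed anchor-drug dose plus five library-drug doses (not always all listed) in √10 steps, then fixed, stained and imaged at 4× after 5 days.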

Nelarabine + Bortezomib = compound: COc1nc(N)nc2c1ncn2[C@@H]1O[C@H](CO)[C@@H](O)[C@@H]1O [Nelarabine] + CC(C)C[C@H](NC(=O)[C@H](Cc1ccccc1)NC(=O)c1cnccn1)B(O)O [Bortezomib] (partner 0.002 µM)
Outline: as §1

Nelarabine + Foretinib = compound: COc1nc(N)nc2c1ncn2[C@@H]1O[C@H](CO)[C@@H](O)[C@@H]1O [Nelarabine] + COc1cc2c(Oc3ccc(NC(=O)C4(C(=O)Nc5ccc(F)cc5)CC4)cc3F)ccnc2cc1OCCCN1CCOCC1 [Foretinib] (partner 0.25 µM)
Outline: as §1

Nelarabine + Linsitinib = compound: COc1nc(N)nc2c1ncn2[C@@H]1O[C@H](CO)[C@@H](O)[C@@H]1O [Nelarabine] + C[C@]1(O)C[C@@H](c2nc(-c3ccc4ccc(-c5ccccc5)nc4c3)c3c(N)nccn32)C1 [Linsitinib] (partner 1 µM)
Outline: as §1

Row | Cell Line | relative viability (Adavosertib + Tozasertib; first compound 0.01 µM) | relative viability (Adavosertib + Tozasertib; first compound 0.03162 µM) | relative viability (Adavosertib + Tozasertib; first compound 0.1 µM) | relative viability (Adavosertib + Tozasertib; first compound 0.3162 µM) | relative viability (Nelarabine + Bortezomib; first compound 0.01 µM) | relative viability (Nelarabine + Bortezomib; first compound 0.03162 µM) | relative viability (Nelarabine + Bortezomib; first compound 0.1 µM) | relative viability (Nelarabine + Bortezomib; first compound 0.3162 µM) | relative viability (Nelarabine + Bortezomib; first compound 1 µM) | relative viability (Nelarabine + Foretinib; first compound 0.01 µM) | relative viability (Nelarabine + Foretinib; first compound 0.03162 µM) | relative viability (Nelarabine + Foretinib; first compound 0.1 µM) | relative viability (Nelarabine + Foretinib; first compound 0.3162 µM) | relative viability (Nelarabine + Foretinib; first compound 1 µM) | relative viability (Nelarabine + Linsitinib; first compound 0.01 µM) | relative viability (Nelarabine + Linsitinib; first compound 0.03162 µM) | relative viability (Nelarabine + Linsitinib; first compound 0.1 µM) | relative viability (Nelarabine + Linsitinib; first compound 0.3162 µM) | relative viability (Nelarabine + Linsitinib; first compound 1 µM)
1 | NCI-H1437 | 0.415 | 0.389 | 0.433 | 0.421 | 0.678 | 0.523 | 0.553 | 0.479 | 0.444 | 1.4 | 1.18 | 1.23 | 1.25 | 1.15 | 1.27 | 1.05 | 0.998 | 1.08 | 1.01
2 | NCI-H1651 | 0.7 | 0.702 | 0.832 | 0.668 | 1 | 0.873 | 1.02 | 0.977 | 0.817 | 1.12 | 0.782 | 0.948 | 0.718 | 0.912 | 1.13 | 0.88 | 1.15 | 0.992 | 0.906
3 | NCI-H1666 | 0.642 | 0.568 | 0.678 | 0.694 | 1.02 | 1.02 | 0.747 | 0.89 | 0.789 | 1.05 | 1.02 | 0.918 | 1 | 1.03 | 0.911 | 0.766 | 0.906 | 0.797 | 0.788
4 | NCI-H1734 | 0.257 | 0.24 | 0.252 | 0.266 | 1.1 | 0.961 | 0.949 | 0.9 | 0.955 | 1.01 | 0.818 | 0.83 | 0.949 | 0.846 | 0.954 | 0.855 | 0.932 | 0.931 | 0.939
5 | NCI-H1755 | 0.649 | 0.581 | 0.682 | 0.535 | 1.02 | 0.971 | 0.947 | 1.03 | 1.03 | 0.939 | 0.82 | 0.928 | 1.05 | 1.01 | 1.01 | 0.999 | 0.989 | 1.1 | 0.995
6 | NCI-H1915 | 0.433 | 0.441 | 0.509 | 0.524 | 1.25 | 0.871 | 1.04 | 0.975 | 0.96 | 1.13 | 1.03 | 1.16 | 1.1 | 1.12 | 1.15 | 1.08 | 1.06 | 1.1 | 1.1
7 | NCI-H1975 | 0.842 | 0.794 | 0.835 | 0.525 | 0.362 | 0.258 | 0.429 | 0.399 | 0.404 | 1.01 | 0.892 | 1.14 | 0.986 | 1.07 | 1.19 | 1.03 | 1.12 | 1.09 | 1.15
8 | NCI-H1993 | 0.633 | 0.598 | 0.658 | 0.666 | 1.25 | 1.21 | 1.27 | 1.13 | 1.04 | 0.845 | 0.712 | 0.737 | 0.831 | 0.708 | 0.803 | 0.7 | 0.834 | 0.662 | 0.668
9 | NCI-H2009 | 0.787 | 0.749 | 1.05 | 0.749 | 1.24 | 1.09 | 0.952 | 1.03 | 1.06 | 1.19 | 1.2 | 1.31 | 1.22 | 1.27 | 1.29 | 1.26 | 1.14 | 1.23 | 1.19
10 | NCI-H2023 | 0.453 | 0.391 | 0.414 | 0.266 | 1.28 | 1.08 | 0.864 | 1.04 | 0.934 | 0.942 | 0.737 | 0.876 | 0.899 | 0.818 | 0.7 | 0.854 | 0.554 | 0.625 | 0.561
11 | NCI-H2085 | 0.738 | 0.788 | 0.956 | 0.799 | 1.07 | 0.976 | 1.02 | 1.05 | 0.889 | 0.96 | 1.04 | 0.76 | 0.881 | 1.06 | 1.3 | 0.747 | 0.848 | 0.883 | 0.867
12 | NCI-H2087 | 0.303 | 0.258 | 0.273 | 0.234 | 1.08 | 0.821 | 1.03 | 1.03 | 0.793 | 1.43 | 0.917 | 1.06 | 1.01 | 1.11 | 1.06 | 0.897 | 1.06 | 1.05 | 0.914
13 | NCI-H2126 | 0.808 | 0.834 | 0.863 | 0.924 | 1.18 | 1.14 | 1.11 | 1.12 | 1.01 | 1.24 | 1.13 | 1.18 | 1.41 | 1.08 | 0.71 | 0.824 | 0.754 | 0.711 | 0.689
14 | NCI-H2228 | 0.276 | 0.277 | 0.249 | 0.204 | 1.45 | 1.52 |  | 1.35 | 1.03 | 0.977 | 1.02 |  | 0.956 | 0.86 | 0.519 | 0.832 |  | 0.63 | 0.898
15 | NCI-H2347 | 0.476 | 0.674 | 0.718 | 0.511 | 1.27 |  | 0.862 | 0.985 | 1.3 | 0.838 |  | 0.528 | 0.65 | 0.89 | 1.08 | 1.02 | 0.968 | 0.939 | 1.04
16 | NCI-H2405 | 0.807 | 0.83 | 0.835 | 0.877 | 1.06 | 0.943 | 0.908 | 1.03 | 0.954 | 1.07 | 1.04 | 0.95 | 0.988 | 1.03 | 0.98 | 0.853 | 0.898 | 0.966 | 0.872
17 | NCI-H3122 | 0.414 | 0.383 | 0.462 | 0.469 | 1.03 | 0.872 |  | 1.03 | 1.02 | 1.11 | 0.771 |  | 1.05 | 0.962 | 1.04 | 0.77 |  | 0.97 | 1.04
18 | PC-3 [JPC-3] | 0.891 | 0.874 | 0.925 | 0.897 | 1.08 | 0.905 | 0.826 | 0.743 | 0.776 | 1.14 | 0.99 | 1.04 | 1.03 | 1.09 | 1.05 | 0.958 | 0.943 | 0.942 | 0.975
19 | PC-14 | 0.6 | 0.566 | 0.843 | 0.69 | 1.14 | 0.898 | 0.854 | 0.828 | 0.841 | 1.04 | 1.11 | 1.06 | 1.02 | 0.997 | 1.03 | 0.96 | 0.986 | 0.979 | 1.03
20 | RERF-LC-KJ | 0.555 | 0.627 | 0.577 | 0.668 | 1.03 | 1.39 | 1.24 | 1.29 | 1.33 | 1.1 | 1.07 | 0.923 | 0.858 | 0.938 | 0.908 | 1.06 | 0.915 | 0.907 | 0.884
21 | SK-LU-1 | 0.371 | 0.321 | 0.302 | 0.174 | 1.56 | 1.02 | 1.61 | 1.1 | 1.13 | 1.03 | 0.584 | 0.951 | 0.896 | 1.03 | 1.45 | 0.835 | 1.1 | 1.11 | 1.35
22 | SW 1573 | 0.221 | 0.234 | 0.192 | 0.17 | 1.63 | 1.12 | 1.18 | 1.25 | 1.1 | 0.889 | 1.09 | 0.882 | 0.952 | 0.86 | 0.82 | 0.646 | 0.848 | 0.799 | 0.73
23 | UMC-11 | 0.19 | 0.201 | 0.196 | 0.181 | 0.928 | 0.572 | 0.924 | 0.816 | 0.535 | 1.23 | 0.961 | 0.963 | 1.11 | 0.972 | 1.34 | 0.768 | 0.949 | 0.987 | 0.896

Reference: the supplement of paper PMC10307832
